Laboratory results: publication PMC9939733 (The Journal of Biological Chemistry, 2023)
Numbering of substitutions follows the chain as printed. Structures can show the parent of a compound that is named as a salt.

Legend:
Format in all cases: biochemical
R132H IDH1 [1] = target: T1, R132H IDH1 (Homo sapiens, UniProt O75874, R132H); assay: Absorbance assay (NADPH consumption), substrate turnover in the absence of 2OG; design: made in house; host or cells: Escherichia coli BL21(DE3) pLyS; conditions: no 2OG; […] test compound, 0.03 μM R132H IDH1, 50 μM NADPH; 2OG = 100
T1 sequence (O75874 whole entry R132H): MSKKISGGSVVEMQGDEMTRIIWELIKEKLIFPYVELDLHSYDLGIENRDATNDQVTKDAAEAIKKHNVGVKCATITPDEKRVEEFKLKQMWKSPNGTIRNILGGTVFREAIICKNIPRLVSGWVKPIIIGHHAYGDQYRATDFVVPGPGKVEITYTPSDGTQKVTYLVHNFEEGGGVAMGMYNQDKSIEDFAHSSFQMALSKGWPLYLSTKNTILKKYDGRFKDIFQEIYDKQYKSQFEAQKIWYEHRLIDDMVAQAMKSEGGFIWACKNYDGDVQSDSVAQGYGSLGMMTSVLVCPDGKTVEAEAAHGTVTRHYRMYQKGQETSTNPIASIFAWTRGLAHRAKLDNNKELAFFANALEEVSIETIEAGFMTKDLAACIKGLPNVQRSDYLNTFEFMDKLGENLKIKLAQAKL
Procedure: (§1) Compounds were dispensed using a CyBio SDW-CW CyBi-Well Simultaneous Pipettor and assay started using a ThermoFisher Multidrop Combi reagent dispenser.
(§2) Reactions were performed as technical quadruplicates.

WT IDH2 [2] = target: T2, WT IDH2 (Homo sapiens, UniProt P48735); assay: Absorbance assay, WT activity in the presence of equimolar DL-isocitrate (inhibition); conditions: […] isocitrate and […] test compound, 75 μM NADP+, 2.0 nM WT IDH2
T2 construct: made in house; host or cells: Sf21 insect cells (cell pellets prepared at Evotec)
T2 sequence (P48735 40-452): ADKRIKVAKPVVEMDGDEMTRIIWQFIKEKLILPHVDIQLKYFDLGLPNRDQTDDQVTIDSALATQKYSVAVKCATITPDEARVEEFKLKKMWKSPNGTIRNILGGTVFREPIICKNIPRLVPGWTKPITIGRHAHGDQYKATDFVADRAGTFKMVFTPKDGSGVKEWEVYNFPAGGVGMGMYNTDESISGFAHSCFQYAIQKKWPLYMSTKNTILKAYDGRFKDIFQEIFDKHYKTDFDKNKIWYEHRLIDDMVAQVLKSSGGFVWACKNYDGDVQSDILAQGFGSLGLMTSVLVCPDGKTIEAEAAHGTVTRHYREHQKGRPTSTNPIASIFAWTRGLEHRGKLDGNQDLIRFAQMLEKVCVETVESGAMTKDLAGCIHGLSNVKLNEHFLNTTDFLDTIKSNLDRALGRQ
Outline: (§3)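 Tech. quadruplicates; cpds pipetted simultaneously, reaction initiated by dispenser addition.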

WT IDH1 [3] = target: T3, WT IDH1 (Homo sapiens, UniProt O75874); assay: as above; conditions: […] isocitrate and […] test compound, 75 μM NADP+, 2.0 nM WT IDH1
T3 construct: made in house; host or cells: Escherichia coli BL21(DE3) pLyS
T3 sequence (O75874 whole entry): as the sequence (O75874 whole entry R132H) above, with H132R counted along it
Outline: as §3

R132H IDH1 [4] = target: T1, R132H IDH1; assay: Absorbance assay, variant activity in the presence of equimolar 2OG (inhibition screen); design: made in house; host or cells: Escherichia coli BL21(DE3) pLyS; conditions: […] 2OG and […] test compound, 0.03 μM R132H IDH1, 50 μM NADPH
Outline: as §3

R140Q IDH2 [5] = target: T4, R140Q IDH2 (Homo sapiens, UniProt P48735, R140Q); assay: Absorbance assay (NADPH consumption), substrate turnover in the absence of 2OG; conditions: no 2OG; 6.0 mM test compound, 0.03 μM R140Q IDH2, 50 μM NADPH; 2OG = 100
T4 construct: made in house; host or cells: Sf21 insect cells (cell pellets prepared at Evotec)
T4 sequence (P48735 40-452 R140Q): T2 sequence (P48735 40-452) with R101Q
Procedure: as §1, §2

R172K IDH2 [6] = target: T5, R172K IDH2 (Homo sapiens, UniProt P48735, R172K); assay: as above; conditions: no 2OG; 1.0 mM test compound, 0.03 μM R172K IDH2, 50 μM NADPH; 2OG = 100
T5 construct: made in house; host or cells: Sf21 insect cells (cell pellets prepared at Evotec)
T5 sequence (P48735 40-452 R172K): T2 sequence (P48735 40-452) with R133K
Procedure: as §1, §2

R140Q IDH2 [7] = target: T4, R140Q IDH2; assay: Absorbance assay, variant activity in the presence of equimolar 2OG (inhibition screen); conditions: 6.0 mM 2OG and 6.0 mM test compound, 0.03 μM R140Q IDH2, 50 μM NADPH
Outline: as §3

R172K IDH2 [8] = target: T5, R172K IDH2; assay: as above; conditions: for activity [%] (%-substrate conversion after 20 min incubation): 1.0 mM 2OG and 1.0 mM test compound, 0.03 μM R172K IDH2, 50 μM NADPH
Outline: as §3

WT IDH2 [9] = target: T2, WT IDH2; assay: Absorbance assay, substrate activity in the absence of DL-isocitrate; conditions: no DL-isocitrate; […] test compound, 75 μM NADP+, 2.0 nM WT IDH2; compared to DL-isocitrate
Outline: as §3

WT IDH1 [10] = target: T3, WT IDH1; assay: as above; conditions: no DL-isocitrate; […] test compound, 75 μM NADP+, 2.0 nM WT IDH1; compared to DL-isocitrate
Outline: as §3

Row | activity [%] (%-substrate conversion after 20 min incubation) (R132H IDH1 [1]) | activity [%] (%-substrate conversion after 20 min incubation) (WT IDH2 [2]) | activity [%] (%-substrate conversion after 20 min incubation) (WT IDH1 [3]) | activity [%] (%-substrate conversion after 20 min incubation) (R132H IDH1 [4]) | activity [%] (%-substrate conversion after 20 min incubation) (R140Q IDH2 [5]) | activity [%] (%-substrate conversion after 20 min incubation) (R172K IDH2 [6]) | activity [%] (%-substrate conversion after 20 min incubation) (R140Q IDH2 [7]) | activity [%] (%-substrate conversion after 20 min incubation) (R172K IDH2 [8]) | activity [%] (%-substrate conversion after 20 min incubation) (WT IDH2 [9]) | activity [%] (%-substrate conversion after 20 min incubation) (WT IDH1 [10]) | inhibition (R172K IDH2 [8]; equimolar 2OG (1.0 mM)) | SMILES
1 | < 10 | 99 ± 1 | 103 ± 1 | 100 ± 2 | < 10 | < 10 | 110 ± 3 | 99 ± 5 | < 10 | < 10 |  | CC(C(=O)O)C(C)C(=O)O (centres unmarked) [1,2-dimethylsuccinic acid]
2 | < 10 | 100 ± 1 | 109 ± 4 | 104 ± 4 | < 10 | < 10 | 91 ± 5 | 99 ± 4 | < 10 | < 10 |  | O=C(O)CC(S)C(=O)O (centres unmarked) [2-mercaptosuccinic acid]
3 | < 10 | 99 ± 2 | 101 ± 1 | 95 ± 2 | < 10 | < 10 | 110 ± 9 | 100 ± 5 | < 10 | < 10 |  | C[C@@](O)(CC(=O)O)C(=O)O [(R)-citramalic acid]
4 | < 10 | 97 ± 1 | 98 ± 1 | 86 ± 3 | < 10 | < 10 | 112 ± 13 | 87 ± 6 | < 10 | < 10 |  | O=C(O)/C=C/C(=O)O [fumaric acid]
5 | < 10 | 100 ± 2 | 100 ± 1 | 103 ± 4 | < 10 | < 10 | 117 ± 11 | 98 ± 4 | < 10 | < 10 |  | O=C(O)CC(=O)O [malonic acid]

The remaining lines, values behind:

Row | SMILES | activity [%] (%-substrate conversion after 20 min incubation) (R132H IDH1 [1]) | activity [%] (%-substrate conversion after 20 min incubation) (WT IDH2 [2]) | activity [%] (%-substrate conversion after 20 min incubation) (WT IDH1 [3]) | activity [%] (%-substrate conversion after 20 min incubation) (R132H IDH1 [4]) | activity [%] (%-substrate conversion after 20 min incubation) (R140Q IDH2 [5]) | activity [%] (%-substrate conversion after 20 min incubation) (R172K IDH2 [6]) | activity [%] (%-substrate conversion after 20 min incubation) (R140Q IDH2 [7]) | activity [%] (%-substrate conversion after 20 min incubation) (R172K IDH2 [8]) | activity [%] (%-substrate conversion after 20 min incubation) (WT IDH2 [9]) | activity [%] (%-substrate conversion after 20 min incubation) (WT IDH1 [10]) | inhibition (R172K IDH2 [8]; equimolar 2OG (1.0 mM))
6 | O=C(O)[C@@H]1CCCN1 [L-proline] | < 10 | 98 ± 1 | 102 ± 1 | 98 ± 1 | < 10 | < 10 | 106 ± 2 | 98 ± 4 | < 10 | < 10 | 
7 | COC(=O)/C=C/C(=O)OC [dimethyl fumarate] | < 10 | 100 ± 3 | 104 ± 4 | 85 ± 3 | < 10 | < 10 | 61 ± 11 | 91 ± 2 | < 10 | < 10 | 
8 | O=CC(=O)O [glyoxylic acid] | < 10 | 99 ± 2 | 104 ± 2 | 108 ± 5 | < 10 | < 10 | 105 ± 6 | 99 ± 6 | < 10 | < 10 | 
9 | C=C(CC(=O)O)C(=O)O [itaconic acid] | < 10 | 99 ± 2 | 99 ± 1 | 92 ± 2 | < 10 | < 10 | 96 ± 3 | 95 ± 7 | < 10 | < 10 | 
10 | O=C(O)C(=O)CS [mercaptopyruvic acid] | < 10 | 85 ± 1 | 88 ± 1 | 51 ± 5 | < 10 | < 10 | 91 ± 5 | 54 ± 1 | < 10 | < 10 | ~ 50%
